Reference: patent publication US9556165B2 (priority 2012, dated 2017)
In brackets after ≈: the same amount, converted by molar mass. Like-named read-outs stand apart in the source and are kept apart here.

Tests used:
Format in all cases: cell-based
E. coli J62 = assay: MIC determination, broth microdilution (CLSI); conditions: Escherichia coli, J62, strain 17
A. baumannii ATCC15308 = assay: MIC determination, broth microdilution (CLSI); conditions: Acinetobacter baumannii, ATCC15308, strain 9
K. pneumoniae 60 = assay: MIC determination, broth microdilution (CLSI); conditions: Klebsiella pneumoniae, 60, strain 2
E. coli J62-TEM-3 = assay: MIC determination, broth microdilution (CLSI); conditions: Escherichia coli
E. coli ATCC25922 = assay: MIC determination, broth microdilution (CLSI); conditions: Escherichia coli, ATCC25922, strain 1
C. freundii K21/3034 = assay: MIC determination, broth microdilution (CLSI); conditions: Citrobacter freundii, K21/3034, strain 4
M. morganii 126/3048 = assay: MIC determination, broth microdilution (CLSI); conditions: Morganella morganii, 126/3048, strain 5
E. cloacae 34654 = assay: MIC determination, broth microdilution (CLSI); conditions: Enterobacter cloacae, 34654, strain 3
[1] = tested on: P. aeruginosa 2297-con (AmpC derepressed); assay: MIC determination, broth microdilution (CLSI); conditions: Pseudomonas aeruginosa, read-out: strain 8 MIC, strain 8
strain 20 = assay: MIC determination, broth microdilution (CLSI)
P. aeruginosa PAO1 = assay: MIC determination, broth microdilution (CLSI); conditions: Pseudomonas aeruginosa, PAO1, strain 6
strain 21 = assay: MIC determination, broth microdilution (CLSI)
[2] = tested on: P. aeruginosa 2297 (AmpC wt); assay: MIC determination, broth microdilution (CLSI); conditions: Pseudomonas aeruginosa, strain 7
S. pneumoniae 113 = assay: MIC determination, broth microdilution (CLSI)
S. maltophilia ICB7569 = assay: MIC determination, broth microdilution (CLSI); conditions: Stenotrophomonas maltophilia, ICB7569, strain 10
strain 19 = assay: MIC determination, broth microdilution (CLSI)
B. fragilis 6688 = assay: MIC determination, broth microdilution (CLSI); conditions: Bacteroides fragilis, 6688, strain 15
M. catarrhalis ICB489 = assay: MIC determination, broth microdilution (CLSI); conditions: Moraxella catarrhalis, ICB489, strain 12
S. aureus 133 = assay: MIC determination, broth microdilution (CLSI)
H. influenzae ATCC 49247 = assay: MIC determination, broth microdilution (CLSI); conditions: Haemophilus influenzae
Bacteria = assay: MIC determination in combination with β-lactamase inhibitors (constant 4 μg/mL)
C. perfringens DSM756 = assay: microbe, parasite or virus in culture; conditions: Clostridium perfringens, DSM756, read-out: MIC strain 16 (C. perfringens DSM756), strain 16; broth microdilution
[3] = Streptococcus pneumoniae, 113, strain 14, read-out: strain 14 MIC
[4] = Staphylococcus aureus, 133, strain 11, read-out: strain 11 MIC
[5] = broth microdilution, read-out: MIC strain 17 (E. coli J62)
[6] = J62TEM3, read-out: MIC strain 18 (E. coli J62-TEM-3), strain 18, broth microdilution
[7] = broth microdilution, read-out: MIC strain 15 (B. fragilis 6688)
[8] = ATCC49247, strain 12, broth microdilution, read-out: MIC strain 12 (H. influenzae ATCC 49247)
[9] = Streptococcus pneumoniae, 113, strain 13, broth microdilution, read-out: MIC strain 13 (S. pneumoniae 113)

`CC1(C)[C@H](NC(=O)/C(=N\OCCOc2ccc(C(=N)N)nn2)c2csc(N)n2)C(=O)N1OS(=O)(=O)O` [Example 29, (2Z)-2-(2-Amino-1,3-thiazol-4-yl)-2-({2-[(6-carbamimidoylpyridazin-3-yl)oxy]-ethoxy}imino)-N-[(3S)-2,2-dimethyl-4-oxo-1-(sulfooxy)azetidin-3-yl]ethanamide] gave an MIC (E. coli J62; read-out: strain 17 MIC) of 0.5 µg/mL (≈ 0.92 µM), an MIC (A. baumannii ATCC15308) of 2 µg/mL (≈ 3.68 µM) and an MIC (K. pneumoniae 60) of 0.25 µg/mL (≈ 0.46 µM). The MIC (E. coli J62-TEM-3; J62TEM3, read-out: strain 18 MIC, strain 18) was 8 µg/mL (≈ 14.7 µM), the MIC (E. coli ATCC25922) was 0.25 µg/mL (≈ 0.46 µM) and the MIC (C. freundii K21/3034) was 0.25 µg/mL (≈ 0.46 µM). The MIC (M. morganii 126/3048) was 0.25 µg/mL (≈ 0.46 µM), the MIC (E. cloacae 34654) was 0.5 µg/mL (≈ 0.92 µM) and the MIC [1] was 8 µg/mL (≈ 14.7 µM). For the same compound, the MIC (strain 20) was 0.5 µg/mL (≈ 0.92 µM), the MIC (P. aeruginosa PAO1) was 8 µg/mL (≈ 14.7 µM) and the MIC (strain 21) was 0.5 µg/mL (≈ 0.92 µM). The MIC [2] was 16 µg/mL (≈ 29.4 µM), the MIC (S. pneumoniae 113; [3]) was 4 µg/mL (≈ 7.36 µM) and the MIC (S. maltophilia ICB7569) was 8 µg/mL (≈ 14.7 µM). It also gave an MIC (strain 19) of 0.5 µg/mL (≈ 0.92 µM).

With `C[C@H]1[C@H](NC(=O)/C(=N\OCCCOc2ccc(C(=N)N)cc2)c2csc(N)n2)C(=O)N1S(=O)(=O)O` [Example 37, (2S,3S)-3-{[(2Z)-2-(2-Amino-1,3-thiazol-4-yl)-2-[{3-(4-carbamimidoylphenoxy)propoxy]imino}acetyl]amino}-2-methyl-4-oxoazetidine-1-sulfonic acid] the MIC (E. coli J62; read-out: strain 17 MIC) was 4 µg/mL (≈ 7.61 µM), the MIC (A. baumannii ATCC15308) was 4 µg/mL (≈ 7.61 µM) and the MIC (K. pneumoniae 60) was 2 µg/mL (≈ 3.81 µM). The MIC (B. fragilis 6688; read-out: strain 15 MIC) was 16 µg/mL (≈ 30.4 µM), the MIC (E. coli ATCC25922) was 2 µg/mL (≈ 3.81 µM) and the MIC (C. freundii K21/3034) was 2 µg/mL (≈ 3.81 µM). The MIC (M. catarrhalis ICB489) was 0.5 µg/mL (≈ 0.951 µM), the MIC (M. morganii 126/3048) was 1 µg/mL (≈ 1.9 µM) and the MIC (S. aureus 133; [4]) was 1 µg/mL (≈ 1.9 µM). The MIC (E. cloacae 34654) was 2 µg/mL (≈ 3.81 µM), the MIC (strain 20) was 2 µg/mL (≈ 3.81 µM) and the MIC (H. influenzae ATCC 49247; ATCC49247, strain 13, read-out: strain 13 MIC) was 1 µg/mL (≈ 1.9 µM). For the same compound, the MIC (P. aeruginosa PAO1) was 8 µg/mL (≈ 15.2 µM), the MIC (strain 21) was 2 µg/mL (≈ 3.81 µM) and the MIC [2] was 8 µg/mL (≈ 15.2 µM). The MIC (S. pneumoniae 113; [3]) was 4 µg/mL (≈ 7.61 µM) and the MIC (strain 19) was 2 µg/mL (≈ 3.81 µM).

With `CC1(C)[C@H](NC(=O)/C(=N\O[C@@H](COc2ccc(C(=N)NC3CCNCC3)cc2)C(=O)O)c2csc(N)n2)C(=O)N1OS(=O)(=O)O` [Example 108, (2S)-2-({[(1Z)-1-(2-Amino-1,3-thiazol-4-yl)-2-{[(3S)-2,2-dimethyl-4-oxo-1-(sulfooxy)-azetidin-3-yl]amino}-2-oxoethylidene]amino}oxy)-3-{4-[N-(piperidin-4-yl)carbamimidoyl]phenoxy}propanoic acid] the MIC (E. coli J62; [5]) was 0.125 µg/mL (≈ 0.187 µM), the MIC (A. baumannii ATCC15308) was 1 µg/mL (≈ 1.5 µM) and the MIC (K. pneumoniae 60) was 0.125 µg/mL (≈ 0.187 µM). It also gave an MIC (E. coli J62-TEM-3; [6]) of 4 µg/mL (≈ 5.98 µM), an MIC (B. fragilis 6688; [7]) of 8 µg/mL (≈ 12 µM) and an MIC (E. coli ATCC25922) of 0.125 µg/mL (≈ 0.187 µM). It also gave an MIC (C. freundii K21/3034) of no more than 0.063 µg/mL, an MIC (M. morganii 126/3048) of no more than 0.063 µg/mL and an MIC (S. aureus 133; [4]) of no more than 0.063 µg/mL. For the same compound, the MIC (S. aureus 133; Staphylococcus aureus, 133, strain 14, broth microdilution, read-out: MIC strain 14 (S. aureus 133)) was 32 µg/mL (≈ 47.9 µM), the “MIC strain 19 (E. coli J62-TEM-3 + 4 μg/mL clavulanic acid)” value (Bacteria) was “≦0.063 mg/L” and the “MIC strain 20 (E. coli J62-TEM-3 + 4 μg/mL sulbactam)” value (Bacteria) was “≦0.063 mg/L”. For the same compound, the “MIC strain 21 (E. coli J62-TEM-3 + 4 μg/mL tazobactam)” value (Bacteria) was 0.125 µg/mL, the MIC (E. cloacae 34654) was 0.125 µg/mL (≈ 0.187 µM) and the MIC [1] was 1 µg/mL (≈ 1.5 µM). For the same compound, the MIC (C. perfringens DSM756) was 1 µg/mL (≈ 1.5 µM), the MIC (H. influenzae ATCC 49247; [8]) was no more than 0.063 µg/mL and the MIC (P. aeruginosa PAO1) was 0.5 µg/mL (≈ 0.748 µM). It also gave an MIC [2] of 1 µg/mL (≈ 1.5 µM), an MIC (S. pneumoniae 113; [9]) of 0.5 µg/mL (≈ 0.748 µM) and an MIC (S. maltophilia ICB7569) of 4 µg/mL (≈ 5.98 µM).

Work on `CN1CC(NC(=N)c2ccc(OC[C@H](O/N=C(\C(=O)N[C@@H]3C(=O)N(OS(=O)(=O)O)C3(C)C)c3csc(N)n3)C(=O)O)cc2)C1` [Example 109] yielded an MIC (E. coli J62; [5]) of 0.125 µg/mL (≈ 0.191 µM), an MIC (A. baumannii ATCC15308) of 2 µg/mL (≈ 3.05 µM) and an MIC (K. pneumoniae 60) of 0.125 µg/mL (≈ 0.191 µM). For the same compound, the MIC (E. coli J62-TEM-3; [6]) was 2 µg/mL (≈ 3.05 µM), the MIC (B. fragilis 6688; [7]) was 16 µg/mL (≈ 24.4 µM) and the MIC (E. coli ATCC25922) was 0.125 µg/mL (≈ 0.191 µM). It also gave an MIC (C. freundii K21/3034) of 0.125 µg/mL (≈ 0.191 µM), an MIC (M. morganii 126/3048) of 0.125 µg/mL (≈ 0.191 µM) and an MIC (S. aureus 133; [4]) of no more than 0.063 µg/mL. For the same compound, the “MIC strain 19 (E. coli J62-TEM-3 + 4 μg/mL clavulanic acid)” value (Bacteria) was “≦0.063 mg/L”, the “MIC strain 20 (E. coli J62-TEM-3 + 4 μg/mL sulbactam)” value (Bacteria) was 0.25 µg/mL and the “MIC strain 21 (E. coli J62-TEM-3 + 4 μg/mL tazobactam)” value (Bacteria) was 0.125 µg/mL. It also gave an MIC (E. cloacae 34654) of 0.125 µg/mL (≈ 0.191 µM), an MIC [1] of 2 µg/mL (≈ 3.05 µM) and an MIC (C. perfringens DSM756) of 4 µg/mL (≈ 6.11 µM). The MIC (H. influenzae ATCC 49247; [8]) was no more than 0.063 µg/mL, the MIC (P. aeruginosa PAO1) was 2 µg/mL (≈ 3.05 µM) and the MIC [2] was 2 µg/mL (≈ 3.05 µM). For the same compound, the MIC (S. pneumoniae 113; [9]) was 0.5 µg/mL (≈ 0.764 µM) and the MIC (S. maltophilia ICB7569) was 8 µg/mL (≈ 12.2 µM).

Compound `CC1(C)[C@H](NC(=O)/C(=N\O[C@@H](COc2ccc(C(=N)NCCNc3ncccn3)cc2)C(=O)O)c2csc(N)n2)C(=O)N1OS(=O)(=O)O` [Example 110, (2S)-2-({[(1Z)-1-(2-Amino-1,3-thiazol-4-yl)-2-{[(3S)-2,2-dimethyl-4-oxo-1-(sulfooxy)azetidin-3-yl]amino}-2-oxoethylidene]amino}oxy)-3-(4-{N-[2-(pyrimidin-2-ylami-no)ethyl]carbamimidoyl}phenoxy)propanoic acid] has an MIC (E. coli J62; [5]) of 1 µg/mL (≈ 1.41 µM), an MIC (A. baumannii ATCC15308) of 32 µg/mL (≈ 45.3 µM) and an MIC (K. pneumoniae 60) of 1 µg/mL (≈ 1.41 µM). For the same compound, the MIC (E. coli J62-TEM-3; [6]) was 32 µg/mL (≈ 45.3 µM), the MIC (B. fragilis 6688; [7]) was 16 µg/mL (≈ 22.6 µM) and the MIC (E. coli ATCC25922) was 0.5 µg/mL (≈ 0.707 µM). For the same compound, the MIC (C. freundii K21/3034) was 0.5 µg/mL (≈ 0.707 µM), the MIC (M. morganii 126/3048) was 0.25 µg/mL (≈ 0.354 µM) and the MIC (S. aureus 133; [4]) was no more than 0.063 µg/mL. The “MIC strain 19 (E. coli J62-TEM-3 + 4 μg/mL clavulanic acid)” value (Bacteria) was 0.5 µg/mL, the “MIC strain 20 (E. coli J62-TEM-3 + 4 μg/mL sulbactam)” value (Bacteria) was 0.5 µg/mL and the “MIC strain 21 (E. coli J62-TEM-3 + 4 μg/mL tazobactam)” value (Bacteria) was 0.5 µg/mL. It also gave an MIC (E. cloacae 34654) of 1 µg/mL (≈ 1.41 µM), an MIC [1] of 16 µg/mL (≈ 22.6 µM) and an MIC (C. perfringens DSM756) of 8 µg/mL (≈ 11.3 µM). It also gave an MIC (H. influenzae ATCC 49247; [8]) of no more than 0.063 µg/mL, an MIC (P. aeruginosa PAO1) of 8 µg/mL (≈ 11.3 µM) and an MIC [2] of 8 µg/mL (≈ 11.3 µM). For the same compound, the MIC (S. pneumoniae 113; [9]) was 0.25 µg/mL (≈ 0.354 µM) and the MIC (S. maltophilia ICB7569) was 8 µg/mL (≈ 11.3 µM).
